According to US9808504B2, “Immunogenic epitopes as targets for universal cancer vaccines” (Yale University, priority 2009, dated 2017):

Test system: freshly isolated human PBMCs
Assay: Detection of OCT4 reactive T cells in fresh PBMCs: IP10 in culture supernatant by Luminex
Assay type: cell-based
Conditions: PBMCs of 10 healthy donors cultured with individual peptides, 48 h

Sequence	reactivity to individual peptides (fine specificity)
AETLVQARKRKRTSI [compound 61]	hot-spots of promiscuous reactivity
AQQLGLEKDVVRVWF [compound 72]	hot-spots of promiscuous reactivity
CKLRPLLQKWVEEA [compound 55]	hot-spots of promiscuous reactivity
DVVRVWFCNRRQKGK [compound 74]	hot-spots of promiscuous reactivity
EICKAETLVQARKRK [compound 60]	hot-spots of promiscuous reactivity
GLEKDVVRVWFCNRR [compound 73]	hot-spots of promiscuous reactivity
KRKRTSIENRVRGNL [compound 63]	hot-spots of promiscuous reactivity
LQQISHIAQQLGLEK [compound 70]	hot-spots of promiscuous reactivity
LSFKNMCKLRPLLQK [compound 53]	hot-spots of promiscuous reactivity
NLFLQCPKPTLQQIS [compound 67]	hot-spots of promiscuous reactivity
NMCKLRPLLQKWV [compound 54]	hot-spots of promiscuous reactivity
NRRQKGKRSSSDYA [compound 76]	hot-spots of promiscuous reactivity
NRVRGNLENLFLQCP [compound 65]	hot-spots of promiscuous reactivity
RQKGKRSSSDYAQR [compound 77]	hot-spots of promiscuous reactivity
SHIAQQLGLEKDVVR [compound 71]	hot-spots of promiscuous reactivity
VQARKRKRTSIENRV [compound 62]	hot-spots of promiscuous reactivity
VWFCNRRQKGKRSSS [compound 75]	hot-spots of promiscuous reactivity
